Structures can show the parent of a compound that is named as a salt.
Legend:
DNMT1 = DNMT1 (Homo sapiens, UniProt P26358); experiment: Selective depletion of DNMT1 by Western blot in treated HCT116 cells; format: cell-based; design: Protein extracts (equivalent to 100 μg) were isolated from HCT116 cells; endogenous in cells; host or cells: HCT116; settings: for % DNMT1 protein level remaining at 5 µM: HCT-116, 5 μM; for % DNMT1 protein level remaining at 10 µM: HCT-116, 10 μM
Description: Biol. 2005, 11, 4727-41.]. For DNMT1, commercially available antibodies from Santa Cruz or New England Biolabs were used.

DNMT1, sequence (P26358 whole entry): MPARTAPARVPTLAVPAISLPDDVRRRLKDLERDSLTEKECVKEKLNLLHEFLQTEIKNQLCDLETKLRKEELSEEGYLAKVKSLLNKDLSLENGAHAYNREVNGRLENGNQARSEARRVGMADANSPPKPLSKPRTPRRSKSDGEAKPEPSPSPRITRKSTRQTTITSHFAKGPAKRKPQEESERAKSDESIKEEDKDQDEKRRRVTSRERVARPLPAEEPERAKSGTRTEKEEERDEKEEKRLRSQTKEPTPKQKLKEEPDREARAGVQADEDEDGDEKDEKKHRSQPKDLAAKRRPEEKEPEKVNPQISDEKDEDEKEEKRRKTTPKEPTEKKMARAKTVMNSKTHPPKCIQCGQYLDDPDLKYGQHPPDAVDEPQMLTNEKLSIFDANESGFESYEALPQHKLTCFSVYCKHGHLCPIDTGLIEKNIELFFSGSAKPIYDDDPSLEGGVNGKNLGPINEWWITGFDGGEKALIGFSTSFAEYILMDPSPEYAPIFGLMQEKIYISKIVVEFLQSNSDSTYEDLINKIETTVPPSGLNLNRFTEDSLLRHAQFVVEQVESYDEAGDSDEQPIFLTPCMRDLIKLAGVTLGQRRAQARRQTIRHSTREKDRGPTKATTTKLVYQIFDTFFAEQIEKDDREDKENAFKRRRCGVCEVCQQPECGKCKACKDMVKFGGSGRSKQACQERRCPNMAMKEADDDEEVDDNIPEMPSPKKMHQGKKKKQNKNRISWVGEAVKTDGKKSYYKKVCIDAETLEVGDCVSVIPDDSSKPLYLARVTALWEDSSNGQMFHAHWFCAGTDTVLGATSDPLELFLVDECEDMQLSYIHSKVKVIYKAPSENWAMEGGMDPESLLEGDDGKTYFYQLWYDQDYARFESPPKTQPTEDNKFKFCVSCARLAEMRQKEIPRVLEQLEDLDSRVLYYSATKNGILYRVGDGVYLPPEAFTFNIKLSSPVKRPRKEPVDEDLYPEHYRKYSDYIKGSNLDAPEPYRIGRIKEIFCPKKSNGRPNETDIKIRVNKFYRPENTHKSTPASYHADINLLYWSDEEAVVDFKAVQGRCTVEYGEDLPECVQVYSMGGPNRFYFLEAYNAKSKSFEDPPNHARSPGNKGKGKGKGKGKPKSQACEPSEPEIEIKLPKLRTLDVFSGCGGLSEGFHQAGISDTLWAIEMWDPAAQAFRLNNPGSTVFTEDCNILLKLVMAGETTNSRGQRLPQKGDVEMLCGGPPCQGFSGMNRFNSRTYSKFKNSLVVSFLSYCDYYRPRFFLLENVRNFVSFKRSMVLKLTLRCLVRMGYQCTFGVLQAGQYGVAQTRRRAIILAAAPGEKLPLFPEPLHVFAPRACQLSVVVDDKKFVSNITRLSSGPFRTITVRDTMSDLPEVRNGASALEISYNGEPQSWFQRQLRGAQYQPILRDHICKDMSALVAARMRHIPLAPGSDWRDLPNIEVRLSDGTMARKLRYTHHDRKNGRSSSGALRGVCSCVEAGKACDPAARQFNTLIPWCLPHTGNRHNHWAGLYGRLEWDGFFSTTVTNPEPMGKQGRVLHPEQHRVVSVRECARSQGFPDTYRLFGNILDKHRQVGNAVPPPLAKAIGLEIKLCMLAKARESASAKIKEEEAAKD

| % DNMT1 protein level remaining at 5 µM (DNMT1) [%] | % DNMT1 protein level remaining at 10 µM (DNMT1) [%] | Structure (SMILES) | further results |
| --- | --- | --- | --- |
| – | – | Cc1cc(Nc2ccc(NC(=O)c3ccc(Nc4ccnc5cc(N(C)C)ccc45)cc3)cc2)nc(N)n1 (as salt: hydrochloride) [Cpd. BB, N-[4-(2-amino-6-methylpyrimidin-4-ylamino)phenyl]-4-(7-(dimethylamino)quinolin-4-ylamino)benzamide hydrochloride] | melting point: 272 to 275 °C |
| – | – | Cl.Cl.O=C(Nc1ccc(Nc2ccncc2)cc1)c1ccc(Nc2ccnc3ccccc23)cc1 [Cpd. EEE2, n-[4-(pyridin-4-ylamino)phenyl]-4-(quinolin-4-ylamino)benzamide dihydrochloride] | % DNMT1 Level (DNMT1; 5 μM): 3%; % DNMT1 Level (DNMT1; 10 μM): 0% |
| – | – | C[n+]1ccc(Nc2ccc(NC(=O)c3ccc(Nc4ccnc5ccc([N+](=O)[O-])cc45)cc3)cc2)cc1 (as salt: hydrochloride) [Cpd. G, 1-methyl-4-(4-(4-(6-nitroquinolin-4-ylamino)benzamido)phenylamino)pyridinium chloride hydrochloride] | melting point: 183 to 187 °C |
| 147 | 130 | C/C(=N\N=C(N)N)c1cccc(NC(=O)c2ccc(Nc3ccnc4ccccc34)cc2)c1 [Cpd. JJ2, (E)-N-[3-(1-{(Diaminomethylene)hydrazono}ethyl)phenyl]-4-(quinolin-4-ylamino)benzamide dihydrochloride] | – |
| 25 | 20 | Cc1cc(Nc2ccc(C(=O)Nc3ccc(Nc4ccnc5ccccc45)cc3)cc2)nc(N)n1 [Cpd. GG1, 4-[(2-amino-6-methyl-4-pyrimidinyl)amino]-N-[4-(4-quinolinylamino)phenyl]benzamide dihydrochloride] | – |
| 70 | 70 | C/C(=N\N=C(N)N)c1ccc(NC(=O)c2ccc(Nc3ccnc4ccc(N(C)C)cc34)cc2)cc1 [Cpd. NN, (E)-N-(4-(1-((Diaminomethylene)hydrazono)ethyl)phenyl)-4-(6-(dimethylamino)quinolin-4-ylamino)benzamide Dihydrochloride] | – |
| 60 | 50 | C/C(=N\N=C(N)N)c1cccc(C(=O)Nc2ccc(Nc3ccnc4ccc(N(C)C)cc34)cc2)c1 [Cpd. QQ, 4-[4-({3-[(1E)-N-(diaminomethylene)ethanehydrazonoyl]-benzoyl}amino)anilino]-6-(dimethylamino)quinolinium chloride] | – |
| – | – | Cc1cc(Nc2cccc(C(=O)Nc3ccc(Nc4ccnc5ccc([N+](=O)[O-])cc45)cc3)c2)nc(N)n1 (as salt: hydrochloride) [RR2, 3-[(2-amino-6-methyl-4-pyrimidinyl)amino]-N-{4-[(6-nitro-4-quinolinyl)amino]phenyl}benzamide dihydrochloride] | melting point: > 300 °C |
| 95 | 95 | C[n+]1ccc(Nc2ccc(NC(=O)c3ccc(Nc4ccnc5ccc([N+](=O)[O-])cc45)cc3)cc2)cc1 [Cpd. G, 1-methyl-4-(4-(4-(6-nitroquinolin-4-ylamino)benzamido)phenylamino)pyridinium chloride hydrochloride] | % DNMT1 protein level remaining at 100 µM (DNMT1; HCT-116, 100 μM): 100% |
| – | – | C/C(=N\N=C(N)N)c1ccc(NC(=O)c2ccc(Nc3ccnc4ccc(N(C)C)cc34)cc2)cc1 (as salt: hydrochloride) [Cpd. NN, (E)-N-(4-(1-((Diaminomethylene)hydrazono)ethyl)phenyl)-4-(6-(dimethylamino)quinolin-4-ylamino)benzamide Dihydrochloride] | melting point: > 280 °C |
| 82 | 20 | Cc1cc(Nc2ccc(NC(=O)c3ccc(Nc4ccnc5c(F)c(F)c(F)cc45)cc3)cc2)nc(N)n1 [Cpd. KK, n-[4-(2-amino-6-methylpyrimidin-4-ylamino)phenyl]-4-(6,7,8-trifluoroquinolin-4-ylamino)benzamide dihydrochloride] | – |
| – | – | Cc1cc(Nc2cccc(C(=O)Nc3ccc(Nc4ccnc5ccc(N(C)C)cc45)cc3)c2)nc(N)n1 (as salt: chloride) [Cpd. EE, 4-[4-({3-[(2-amino-6-methyl-4-pyrimidinyl)amino]benzoyl}amino)anilino]-6-(dimethylamino)quinolinium chloride] | melting point: > 300 °C |
| – | – | Cc1cc(Nc2ccc(C(=O)Nc3ccc(Nc4ccnc5ccc([N+](=O)[O-])cc45)cc3)cc2)nc(N)n1 (as salt: hydrochloride) [Cpd. GG4, 4-[(2-Amino-6-methyl-4-pyrimidinyl)amino]-N-{4-[(6-nitro-4-quinolinyl)amino]phenyl}benzamide dihydrochloride] | melting point: 295 to 300 °C |
| – | – | C/C(=N\N=C(N)N)c1cccc(C(=O)Nc2ccc(Nc3ccnc4ccc(N(C)C)cc34)cc2)c1 (as salt: chloride) [Cpd. QQ, 4-[4-({3-[(1E)-N-(diaminomethylene)ethanehydrazonoyl]-benzoyl}amino)anilino]-6-(dimethylamino)quinolinium chloride] | melting point: > 280 °C |
| – | – | Cc1cc(Nc2ccc(NC(=O)c3ccc(Nc4ccnc5ccc([N+](=O)[O-])cc45)cc3)cc2)nc(N)n1 (as salt: hydrochloride) [Cpd. H, N-(4-(2-amino-6-methylpyrimidin-4-ylamino)phenyl)-4-(6-nitroquinolin-4-ylamino)benzamide hydrochloride] | melting point: 301 to 305 °C |
| – | 90 | Cc1cc(Nc2ccc(C(=O)Nc3ccc(Nc4ccnc5ccc([N+](=O)[O-])cc45)cc3)cc2)nc(N)n1 [Cpd. GG4, 4-[(2-Amino-6-methyl-4-pyrimidinyl)amino]-N-{4-[(6-nitro-4-quinolinyl)amino]phenyl}benzamide dihydrochloride] | – |
| – | 90 | Cc1cc(Nc2ccc(C(=O)Nc3ccc(Nc4ccnc5ccc(N(C)C)cc45)cc3)cc2)nc(N)n1 [Cpd. HH, 4-[(2-amino-6-methyl-4-pyrimidinyl)amino]-N-(4-{[6-(dimethylamino)-4-quinolinyl]amino}phenyl)benzamide dihydrochloride] | – |
| – | 100 | Nc1cc(Nc2cccc(C(=O)Nc3ccc(Nc4ccnc5ccc([N+](=O)[O-])cc45)cc3)c2)nc(N)n1 [Cpd. RR1, 3-[(2,6-diamino-4-pyrimidinyl)amino]-N-{4-[(6-nitro-4-quinolinyl)amino]phenyl}benzamide dihydrochloride] | – |
| 85 | 83 | Nc1cc(Nc2cccc(C(=O)Nc3ccc(Nc4ccnc5ccccc45)cc3)c2)nc(N)n1 [Cpd. FF2, 3-[(2,6-Diamino-4-pyrimidinyl)amino]-N-[4-(4-quinolinylamino)-phenyl]benzamide dihydrochloride] | – |
| – | 100 | Cc1cc(Nc2cccc(C(=O)Nc3ccc(Nc4ccnc5ccc(N)cc45)cc3)c2)nc(N)n1 [RR3, 3-[(2-Amino-6-methyl-4-pyrimidinyl)amino]-N-{4-[(6-amino-4-quinolinyl)amino]phenyl}benzamide dihydrochloride] | – |
| 30 | 10 | Cc1cc(Nc2cccc(C(=O)Nc3ccc(Nc4ccnc5ccc(N(C)C)cc45)cc3)c2)nc(N)n1 [Cpd. EE, 4-[4-({3-[(2-amino-6-methyl-4-pyrimidinyl)amino]benzoyl}amino)anilino]-6-(dimethylamino)quinolinium chloride] | – |
| 60 | 70 | C/C(=N\N=C(N)N)c1ccc(C(=O)Nc2ccc(Nc3ccnc4ccc(N(C)C)cc34)cc2)cc1 [Cpd. PP, 4-[(1E)-N-(diaminomethylene)ethanehydrazonoyl]-N-(4-{[6-(dimethylamino)-4-quinolinyl]amino}phenyl)benzamide dihydrochloride] | – |
| 110 | 10 | Cc1cc(Nc2ccc(C(=O)Nc3ccc(Nc4ccnc5ccc(N)cc45)cc3)cc2)nc(N)n1 [Cpd. GG3, 4-[(2-amino-6-methyl-4-pyrimidinyl)amino]-N-{4-[(6-amino-4-quinolinyl)amino]phenyl}benzamide dihydrochloride] | – |
| 85 | 52 | Cc1cc(Nc2ccc(C(=O)Nc3ccc(Nc4ccnc5cc(N)ccc45)cc3)cc2)nc(N)n1 [Cpd. GG2, 4-[(2-Amino-6-methyl-4-pyrimidinyl)amino]-N-{4-[(7-amino-4-quinolinyl)amino]phenyl}benzamide dihydrochloride] | – |
| 75 | 70 | C/C(=N\N=C(N)N)c1cccc(NC(=O)c2ccc(Nc3ccnc4ccc(N(C)C)cc34)cc2)c1 [Cpd. JJ1, (E)-N-[3-(1-{(diaminomethylene)hydrazono}ethyl)phenyl]-4-[6-(dimethylamino)quinolin-4-ylamino]benzamide dihydrochloride] | – |
| – | 90 | Cc1cc(Nc2ccc(C(=O)Nc3ccc(Nc4ccnc5cc([N+](=O)[O-])ccc45)cc3)cc2)nc(N)n1 [Cpd. GG5, 4-[(2-Amino-6-methyl-4-pyrimidinyl)amino]-N-{4-[(7-nitro-4-quinolinyl)amino]phenyl}benzamide dihydrochloride] | – |
| – | 100 | Cc1cc(Nc2cccc(C(=O)Nc3ccc(Nc4ccnc5ccc([N+](=O)[O-])cc45)cc3)c2)nc(N)n1 [RR2, 3-[(2-amino-6-methyl-4-pyrimidinyl)amino]-N-{4-[(6-nitro-4-quinolinyl)amino]phenyl}benzamide dihydrochloride] | – |
| 15 | 5 | Cc1cc(Nc2cccc(C(=O)Nc3ccc(Nc4ccnc5ccccc45)cc3)c2)nc(N)n1 [Cpd. FF1, 3-[(2-amino-6-methyl-4-pyrimidinyl)amino]-N-[4-(4-quinolinylamino)phenyl]benzamide dihydrochloride] | – |

— patent publication US7939546B2, “Quinoline derivatives for modulating DNA methylation” (SuperGen, Inc., priority 2007, dated 2011)
